These results are taken from ChEMBL document CHEMBL5500384, “New synergistic benzoquinone scaffolds as inhibitors of mycobacterial cytochrome bc1 complex to treat multi-drug resistant tuberculosis” (Eur J Med Chem, 2024).

In brackets after ≈: the same amount, converted by molar mass.

Type in all cases: functional
The test system of test [1] is Mycobacterium tuberculosis. The test is described as follows: Potentiation of isoniazid antitubercular activity against multidrug resistant Mycobacterium tuberculosis RF21212 assessed as decrease in isoniazid MIC99.9 at 3.125 ug/ml by broth dilution method (reference value: 12.8 ug/ml). Conditions: dose 3.125 µg/ml. On the technique in general: Broth dilution looks for growth in wells or tubes with falling amounts of substance.

Test [2] has as its system Mycobacterium tuberculosis. The test is described as follows: Potentiation of rifampicin antitubercular activity against multidrug resistant Mycobacterium tuberculosis BLG3381 assessed as decrease in rifampicin MIC99.9 at 0.39 ug/ml by broth dilution method (reference value: 64 ug/ml). Conditions: dose 0.39 µg/ml.
In test [3] the test system is Mycobacterium tuberculosis. The experiment in a line: Potentiation of rifampicin antitubercular activity against multidrug resistant Mycobacterium tuberculosis RF21250 assessed as decrease in rifampicin MIC99.9 at 0.39 ug/ml by broth dilution method (reference value: 128 ug/ml). Conditions: dose 0.39 µg/ml.
Test [4] deals with Mycobacterium tuberculosis. The test is described as follows: Potentiation of rifampicin antitubercular activity against multidrug resistant Mycobacterium tuberculosis RF21212 assessed as decrease in rifampicin MIC99.9 at 3.125 ug/ml by broth dilution method (reference value: 128 ug/ml). Conditions: dose 3.125 µg/ml.
Test [5] has as its system Mycobacterium tuberculosis. The test is described as follows: Antitubercular activity against multidrug resistant Mycobacterium tuberculosis RF21212 incubated for 5 days by microtiter plate method. Conditions: time 5 day; for MIC: Mycobacterium tuberculosis, RF21212, 120 h.
Test [6] has as its system Mycobacterium tuberculosis. The experiment in a line: Potentiation of isoniazid antitubercular activity against multidrug resistant Mycobacterium tuberculosis BLG3381 assessed as decrease in isoniazid MIC99.9 at 0.39 ug/ml by broth dilution method (reference value: 12.8 ug/ml). Conditions: dose 0.39 µg/ml.
Test [7] deals with Mycobacterium tuberculosis. The test is described as follows: Antitubercular activity against multidrug resistant Mycobacterium tuberculosis RF21250 incubated for 5 days by microtiter plate method. Conditions: time 5 day; for MIC: Mycobacterium tuberculosis, RF21250, 120 h.
The test system of test [8] is Mycobacterium tuberculosis. The test is described as follows: Potentiation of isoniazid antitubercular activity against multidrug resistant Mycobacterium tuberculosis RF21250 assessed as decrease in isoniazid MIC99.9 at 0.39 ug/ml by broth dilution method (reference value: 3.2 ug/ml). Conditions: dose 0.39 µg/ml.
For test [9], the system named is Mycobacterium tuberculosis. The test is described as follows: Antitubercular activity against multidrug resistant Mycobacterium tuberculosis BLG3381 incubated for 5 days by microtiter plate method. Conditions: BLG3381, 120 h, time 5 day.
The test system of test [10] is Mycobacterium tuberculosis. The experiment in a line: Potentiation of isoniazid antitubercular activity against multidrug resistant Mycobacterium tuberculosis RF21212 assessed as decrease in isoniazid MIC99.9 at 1.56 ug/ml by broth dilution method (reference value: 12.8 ug/ml). Conditions: dose 1.56 µg/ml.
The subject of test [11] is Mycobacterium tuberculosis. The test is described as follows: Potentiation of rifampicin antitubercular activity against multidrug resistant Mycobacterium tuberculosis RF21250 assessed as decrease in rifampicin MIC99.9 at 0.78 ug/ml by broth dilution method (reference value: 128 ug/ml). Conditions: dose 0.78 µg/ml.
The test system of test [12] is Mycobacterium tuberculosis. The test is described as follows: Potentiation of isoniazid antitubercular activity against multidrug resistant Mycobacterium tuberculosis RF21250 assessed as decrease in isoniazid MIC99.9 at 0.78 ug/ml by broth dilution method (reference value: 3.2 ug/ml). Conditions: dose 0.78 µg/ml.
For test [13], the system named is Mycobacterium tuberculosis. The experiment in a line: Potentiation of rifampicin antitubercular activity against multidrug resistant Mycobacterium tuberculosis BLG3381 assessed as decrease in rifampicin MIC99.9 at 3.125 ug/ml by broth dilution method (reference value: 64 ug/ml). Conditions: dose 3.125 µg/ml.
For test [14], the system named is Mycobacterium tuberculosis. The test is described as follows: Potentiation of rifampicin antitubercular activity against multidrug resistant Mycobacterium tuberculosis RF21212 assessed as decrease in rifampicin MIC99.9 at 0.78 ug/ml by broth dilution method (reference value: 128 ug/ml). Conditions: dose 0.78 µg/ml.
For test [15], the system named is Mycobacterium tuberculosis. The test is described as follows: Potentiation of isoniazid antitubercular activity against multidrug resistant Mycobacterium tuberculosis BLG3381 assessed as decrease in isoniazid MIC99.9 at 3.125 ug/ml by broth dilution method (reference value: 12.8 ug/ml). Conditions: dose 3.125 µg/ml.
Test [16] has as its system Mycobacterium tuberculosis. The test is described as follows: Potentiation of rifampicin antitubercular activity against multidrug resistant Mycobacterium tuberculosis RF21212 assessed as decrease in rifampicin MIC99.9 at 1.56 ug/ml by broth dilution method (reference value: 128 ug/ml). Conditions: dose 1.56 µg/ml.
Test [17] concerns Mycobacterium tuberculosis. The test is described as follows: Potentiation of isoniazid antitubercular activity against multidrug resistant Mycobacterium tuberculosis RF21250 assessed as decrease in isoniazid MIC99.9 at 1.56 ug/ml by broth dilution method (reference value: 3.2 ug/ml). Conditions: dose 1.56 µg/ml.
Test [18] relates to Mycobacterium tuberculosis. The test is described as follows: Potentiation of isoniazid antitubercular activity against multidrug resistant Mycobacterium tuberculosis RF21212 assessed as decrease in isoniazid MIC99.9 at 0.78 ug/ml by broth dilution method (reference value: 12.8 ug/ml). Conditions: dose 0.78 µg/ml.
Test [19] concerns Mycobacterium tuberculosis. The experiment in a line: Potentiation of rifampicin antitubercular activity against multidrug resistant Mycobacterium tuberculosis BLG3381 assessed as decrease in rifampicin MIC99.9 at 6.25 ug/ml by broth dilution method (reference value: 64 ug/ml). Conditions: dose 6.25 µg/ml.
Test [20] has as its system Mycobacterium tuberculosis. The experiment in a line: Potentiation of rifampicin antitubercular activity against multidrug resistant Mycobacterium tuberculosis RF21250 assessed as decrease in rifampicin MIC99.9 at 3.125 ug/ml by broth dilution method (reference value: 128 ug/ml). Conditions: dose 3.125 µg/ml.
Test [21] deals with Mycobacterium tuberculosis. The test is described as follows: Potentiation of isoniazid antitubercular activity against multidrug resistant Mycobacterium tuberculosis RF21250 assessed as decrease in isoniazid MIC99.9 at 3.125 ug/ml by broth dilution method (reference value: 3.2 ug/ml). Conditions: dose 3.125 µg/ml.
Test [22] concerns Mycobacterium tuberculosis. The experiment in a line: Potentiation of isoniazid antitubercular activity against multidrug resistant Mycobacterium tuberculosis BLG3381 assessed as decrease in isoniazid MIC99.9 at 6.25 ug/ml by broth dilution method (reference value: 12.8 ug/ml). Conditions: dose 6.25 µg/ml.

On to `NC1=C(Cl)C(=O)c2ccccc2C1=O`, for which the MIC99.9 in test [1] is 1.6 mg/L; in test [2] it was 0.007 mg/L; in test [3], 0.125 mg/L; in test [4] it was 4 mg/L; in test [5] it was 6.25 mg/L (≈ 30.1 µM); in [6], 0.8 mg/L. Moreover, the MIC99.9 amounted to 3.125 mg/L (≈ 15.1 µM) in test [7] and 0.2 mg/L in test [8]. Besides, 15.1 µM was the least that counted as inhibitory in test [9] (MIC).

On to `CCOc1cc(C2C(Cl)C(=O)N2C2=C(Cl)C(=O)c3ccccc3C2=O)ccc1O` (stereo not given), for which the MIC99.9 in test [10] turned out to be 0.4 mg/L; in test [11], 1 mg/L; in test [12] it was 0.2 mg/L; in test [7], 3.125 mg/L (≈ 7.23 µM); in test [13], 0.5 mg/L; in test [14] it was 0.5 mg/L. Besides, the MIC99.9 in [15] turned out to be 0.05 mg/L. The figures for the minimum inhibitory concentration (MIC) in test [5] and in [9] were 7.23 µM (≈ 3.13 µg/mL) and 28.9 µM, respectively.

Turning to `O=C1C(Cl)=C(N2C(=O)C(Cl)C2c2ccc([N+](=O)[O-])cc2)C(=O)c2ccccc21` (stereo not given), the MIC99.9 amounted to 1.6 mg/L in [1]; 2 mg/L in [4]; 2 mg/L in test [11]; 0.4 mg/L in [12]; 3.125 mg/L (≈ 7.49 µM) in [7]; 0.25 mg/L in test [13]. The MIC99.9 in [15] stood at 0.025 mg/L. Besides, the results for the MIC in test [5] and in test [9] were 30 µM (≈ 12.5 µg/mL) and 15 µM, respectively.

As for `O=C1C(Cl)=C(N2C(=O)C(Cl)C2c2ccc(Cl)cc2)C(=O)c2ccccc21` (stereo not given), the MIC99.9 in test [10] is 0.1 mg/L; in [11] it was 4 mg/L; in [5] it was 6.25 mg/L (≈ 15.4 µM); in [12], 0.8 mg/L; in [7], 6.25 mg/L (≈ 15.4 µM); in test [16], 0.031 mg/L. Also, the MIC99.9 in [13] came to 0.1 mg/L; in [15] it was 1.6 mg/L. Also, in test [9], the MIC (in general, the smallest concentration in the dilution series that meets the test's criterion for growth inhibition) worked out at 30.8 µM.

On to `CN(C)c1ccc(C2C(Cl)C(=O)N2C2=C(Cl)C(=O)c3ccccc3C2=O)cc1` (stereo not given), for which the MIC99.9 in [10] was 3.2 mg/L; in [11] it was 1 mg/L; in test [5] it was 6.25 mg/L (≈ 15.1 µM); in test [7], 6.25 mg/L (≈ 15.1 µM); in [16] it was 16 mg/L; in test [13] it was 4 mg/L. For the same compound, the MIC99.9 in test [17] and in [15] was 1.6 mg/L throughout. Moreover, in test [9], the MIC stood at 30.1 µM.

With `O=C1C(Cl)=C(N2C(=O)C(Cl)C2c2ccccc2)C(=O)c2ccccc21` (stereo not given), the MIC in test [9] was 6.25 mg/L.

Consider `COc1ccc(C2C(Cl)C(=O)N2C2=C(Cl)C(=O)c3ccccc3C2=O)cc1` (stereo not given), for which the MIC99.9 stood at 1.6 mg/L in test [18]; 0.125 mg/L in [3]; 6.25 mg/L (≈ 15.5 µM) in test [7]; 16 mg/L in [16]; 1 mg/L in test [13]; 0.4 mg/L in [8]. Further, the MIC99.9 in test [15] is 0.4 mg/L. Also, the MIC was found to be 31.1 µM (≈ 12.5 µg/mL) in test [5] and 15.5 µM in [9].

Consider `O=C1C(Cl)=C(Cl)C(=O)c2ccccc21` [Dichlon], for which the MIC99.9 in test [1] turned out to be 3.2 mg/L; in test [4], 32 mg/L; in test [19], 8 mg/L; in test [20], 16 mg/L; in test [21], 0.4 mg/L; in test [22], 0.8 mg/L. Besides, the values for the MIC in test [5], in test [7] and in test [9] were 55.1 µM (≈ 12.5 µg/mL), 27.5 µM (≈ 6.25 µg/mL) and 55.1 µM, respectively.

On to `NNC(=O)c1ccncc1` [ISONIAZID], for which the MIC in test [5] is 93.9 µM (≈ 12.9 µg/mL); in test [7], 23.3 µM (≈ 3.2 µg/mL); in [9] it was 93.9 µM.

Regarding `CO[C@H]1/C=C/O[C@@]2(C)Oc3c(C)c(O)c4c(O)c(c(/C=N/N5CCN(C)CC5)c(O)c4c3C2=O)NC(=O)/C(C)=C\C=C\[C@H](C)[C@H](O)[C@@H](C)[C@@H](O)[C@@H](C)[C@H](OC(C)=O)[C@@H]1C` [RIFAMPIN], the values for the MIC in test [5], in test [7] and in [9] were 156 µM (≈ 128 µg/mL), 156 µM (≈ 128 µg/mL) and 77.8 µM, respectively.
